The star is where a group is joined. Palmitoyl = CCCCCCCCCCCCCCCC(=O)*
Assays:
[1] = system: Fibronectin; test: ELISA of fibronectin in culture supernatant of human dermal fibroblasts; assay type: cell-based; details: HDFs, 72 hours, ELISA weighted to viable cells
Procedure: (§1) An ELISA is an immunological assay commonly used to measure presence and abundance of a specific proteins (antibodies, antigens, proteins and glycoproteins) in biological samples. In this case ELISAs are being used to quantify the expression of dermal extracellular proteins collagen-1, decorin and fibronectin. The quantity of collagen I is evaluated via the quantity of PIP (“carboxU-terminal pro-peptide of procollagen type I”) which is a peptide fragment resulting from the enzymatic degradation of procollagen present outside the fibroblast in the culture supernatant medium.
(§2) For all experiments, the control liquid stock was prepared by dissolving the powdered peptides in DMSO (Dimethyl Sulfoxide solvent). Peptide powders were dissolved in DMSO at recommended part per million concentrations and then further diluted in the cell culture medium and combined to obtain the desired peptide ratio.
(§3) Normal human dermal fibroblasts cells (HDFs) were cultured in contact with the tetrapeptides of the present invention, or composition without the peptide (negative control), for 72 hours. Thereafter the cultured supernatants were removed, and the quantity of dermal extracellular proteins determined using an ELISA assay for the protein of interest. For the ELISA quantification, cell viability was calculated using Hoechst staining allowing the quantity of dermal proteins to be weighted to the number of viable cells.
(§4) The effect of LSXX tetrapeptides on ECM protein expression by fibroblasts as measured by ELISA (columns 1 to 3) versus a tetrapeptide not conforming to the LSXX structure (column 4) are presented in the table below (table 1). Results are expressed as % increase versus the negative control.

[2] = system: Collagen I (PIP); test: ELISA of Collagen I (PIP) in culture supernatant of human dermal fibroblasts; assay type: cell-based; details: HDFs, 72 hours, ELISA weighted to viable cells
Procedure: as §1, §2, §3
The quantity of Collagen I is evaluated via the quantity of PIP (“carboxU-terminal pro-peptide of procollagen type I”) which is a peptide fragment resulting from the enzymatic degradation of procollagen present outside the fibroblast in the culture supernatant medium.
as §4

[3] = system: Decorin; test: ELISA of decorin in culture supernatant of human dermal fibroblasts; assay type: cell-based; details: HDFs, 72 hours, ELISA weighted to viable cells
Procedure: as §1, §2, §3, §4

[4] = system: Fibrillin-1; test: Immunofluorescence of Fibrillin-1 expression by HDF cells; assay type: cell-based, human; details: HDFs, 5 days
Procedure: Immunofluorescence relies on the use of antibodies to label a specific protein with a fluorescent dye such as fluorescein isothiocyanate (FITC). In the following experiments, indirect immunofluorescence is used where a primary antibody first recognises and attaches to the specific protein, in this case fibrillin-1, and then a secondary antibody conjugated with FITC directed against the primary antibody is used for detection.
as §2
Fibrillin-1 expression was determined using immunofluorescence. Primary human dermal fibroblast (HDF) cells were purchased from Promo Cell and came from a donor. Cells were grown in wells of 96 well black walled clear bottomed plates (Peirce, Thermo Fisher). Cells were cultured in HDF media (PromoCell) supplemented with Basic Fibroblast Growth Factor (recombinant human), 1 ng/ml and Insulin 5 μg/ml. Cells were cultured for 5 days in the presence of the tetrapeptides, changing media and peptides every 48 hours, followed by immunofluorescence assessment. At the time of treatment cells were at passage 3-4. After 5 days the media was discarded, and cells fixed with methanol. The Fibrillin-1 fibre formation was probed using primary Fibrillin-1 monoclonal antibody (11C1.3; mouse monoclonal antibody (Thermo Fisher) 1 in 100 dilution overnight) designed to detect Fibrillin-1 protein. The Fibrillin-1 fibre formation was then probed with a secondary Goat anti-mouse IgG Thermo Fisher (1 part antibody in 1000 buffer solution for 1 hour) which includes a fluorescent tag designed to reveal the primary antibody binding pattern.
The antibody binding to Fibrillin-1 fibres was visualised using a Nikon Eclipse 100 microscope fluorescence setting using an excitation lens for fluorescein isothiocyanate (FITC). Images were taken using 6 second UV exposure. ImageJ software was used to quantify the Fibrillin-1 fibre abundance and coverage in each image using a threshold of 235 measuring the fibre density.
Results are expressed as a percentage increase in fibrillin abundance compared to untreated control.
Fibrillin-1 expression by HDF cells treated with tetrapeptides conforming to the LSXX structure (Pal-LSPG-OH, Pal-LSPD-OH and Pal-LSVD-OH) and a tetrapeptide not conforming to the LSXX structure (Pal-GYIL-OH), are presented in the table below (table 2). The peptide concentration used offered the highest yield of Fibrillin-1 production.

[5] = system: CD44; test: LC-MS/MS relative protein abundance in HDF secretome/matrisome: CD44; assay type: cell-based, human; details: HDFs, peptide 8 ppm, seven-day culture, secretome + matrisome
Procedure: (§5) Following incubation with the peptides, liquid chromatography tandem mass spectrometry (LC-MS/MS) was used to quantify the relative abundance differences between proteins identified in the secretome/matrisome, versus an untreated control. HDFs from a donor, plated at 50,000 cells per well, were cultured with either peptide dissolved in cell culture media to achieve a final concentration of 8 ppm or with media without any peptide as a negative control. Treated and control cells were tested in triplicate. The cells were cultured as normal for five days in serum-supplemented media and then for a further two days in serum-free media (seven-day culture in total). The cell media containing the secretome (the proteins secreted by the cell) and the ECM, decellularized by incubation with EDTA (ethylenediaminetetraacetic acid), containing the matrisome (the collection of ECM associated proteins) were collected. The combined secretome and the matrisome compartments were subsequently analysed by LC-MS/MS using the following protocol.
(§6) Proteins were denatured (in urea), reduced (in dithiothreitol) and mechanically disassociated (using ultrasonication) prior to overnight digestion with trypsin (SMART Digest™ trypsin kit; Thermo Fisher). After digestion, samples were cleaned of contaminants up by removal of organic molecules and surfactants using biphasic extraction and desalted using OLIGO™ R3 Reversed Phase Resin (Thermo Fisher).
(§7) Samples (200 ng) were ran on an UltiMate® 3000 Rapid Separation Liquid Chromatographer coupled to a Q Exactive™ Hybrid Quadrupole-Orbitrap™ Mass Spectrometer for 90-minutes per sample run. Spectral data was searched again the Uniprot Human proteome database using Mascot v2.5.1. Subsequent protein identification and data-dependent quantification was performed using Progenesis QI. Normalised protein abundances were compared between each peptide treatment and control. Statistical analysis was performed within Progenesis QI using a between sample ANOVA.
(§8) The mass spectrometry data for each peptide is shown below in table 3 and FIG. 1. Changes in protein synthesis abundance due to each peptide are described below, including changes to specific proteins and the protein families they belong to (table 3). […] These protein families were as follows: antioxidants, cell stress proteins, ECM cleaving enzymes and ECM adhesion proteins; functional protein families all with a potentially important role in dermal repair and remodelling.

[6] = system: PRDX4; test: LC-MS/MS relative protein abundance in HDF secretome/matrisome: PRDX4; assay type: cell-based, human; details: HDFs, peptide 8 ppm, seven-day culture, secretome + matrisome
Procedure: as §5, §6, §7, §8

[7] = system: human dermal fibroblasts; test: LC-MS/MS overall protein synthesis and functional protein families in HDFs (FIG. 1 bubble plot); assay type: cell-based; details: peptide 8 ppm, seven-day culture
Procedure: as §5, §6, §7, §8
In the bubble plot, the larger the bubble size, the stronger the enhancement of proteins within that protein family.

[8] = system: HSP90B1; test: LC-MS/MS relative protein abundance in HDF secretome/matrisome: HSP90B1; assay type: cell-based, human; details: HDFs, peptide 8 ppm, seven-day culture, secretome + matrisome
Procedure: as §5, §6, §7, §8

[9] = system: SOD1; test: LC-MS/MS relative protein abundance in HDF secretome/matrisome: SOD1; assay type: cell-based, human; details: HDFs, peptide 8 ppm, seven-day culture, secretome + matrisome
Procedure: as §5, §6, §7, §8

[10] = system: CTSL; test: LC-MS/MS relative protein abundance in HDF secretome/matrisome: CTSL; assay type: cell-based, human; details: HDFs, peptide 8 ppm, seven-day culture, secretome + matrisome
Procedure: as §5, §6, §7, §8

[11] = system: HSPA8; test: LC-MS/MS relative protein abundance in HDF secretome/matrisome: HSPA8; assay type: cell-based, human; details: HDFs, peptide 8 ppm, seven-day culture, secretome + matrisome
Procedure: as §5, §6, §7, §8

Row | Substance | Fibronectin, % increase versus the negative control ([1]; peptide 5 ppm) | Collagen I (PIP), % increase versus the negative control ([2]; peptide 5 ppm) | Decorin, % increase versus the negative control ([3]; peptide 5 ppm) | Fibrillin-1, percentage increase in fibrillin abundance compared to untreated control ([4]; peptide 4 ppm) | CD44 (ECM adhesion) protein enhanced versus untreated control [5] | PRDX4 (Antioxidants) protein enhanced versus untreated control [6] | overall protein synthesis / expression in comparison to the control [7] | HSP90B1 (Cell stress) protein enhanced versus untreated control [8] | SOD1 (Antioxidants) protein enhanced versus untreated control [9] | CTSL (ECM cleaving enzymes) protein enhanced versus untreated control [10] | HSPA8 (Cell stress) protein enhanced versus untreated control [11] | Fibrillin-1, percentage increase in fibrillin abundance compared to untreated control ([4]; peptide 10 ppm) | Fibronectin, % increase versus the negative control ([1]; peptide 3 ppm) | Collagen I (PIP), % increase versus the negative control ([2]; peptide 3 ppm) | Decorin, % increase versus the negative control ([3]; peptide 3 ppm) | Fibrillin-1, percentage increase in fibrillin abundance compared to untreated control ([4]; peptide 8 ppm)
1 | Pal-LSPD-OH (Palmitoyl-LSPD-OH; SMILES CCCCCCCCCCCCCCCC(=O)N[C@@H](CC(C)C)C(=O)N[C@@H](CO)C(=O)N1CCC[C@H]1C(=O)N[C@@H](CC(=O)O)C(=O)O) [N-palmitoyl tetrapeptide Leu-Ser-Pro-Asp, free C-terminus; LSXX tetrapeptide of the invention] | +92% | +82% | +24% | +98% | – | – | – | – | – | – | – | – | – | – | – | –
2 | Pal-LSVD-OH (Palmitoyl-LSVD-OH; SMILES CCCCCCCCCCCCCCCC(=O)N[C@@H](CC(C)C)C(=O)N[C@@H](CO)C(=O)N[C@H](C(=O)N[C@@H](CC(=O)O)C(=O)O)C(C)C) [N-palmitoyl tetrapeptide Leu-Ser-Val-Asp, free C-terminus; LSXX tetrapeptide of the invention] | +24% | +29% | +131% | – | +57% | +120% | overall enhancement of protein synthesis | +49% | +35% | +42% | +48% | +151% | – | – | – | –
3 | Pal-GYIL-OH [reference compound] | −23% | −4% | +2% | – | – | – | – | – | – | – | – | +3% | – | – | – | –
4 | Pal-LSPG-OH (Palmitoyl-LSPG-OH; SMILES CCCCCCCCCCCCCCCC(=O)N[C@@H](CC(C)C)C(=O)N[C@@H](CO)C(=O)N1CCC[C@H]1C(=O)NCC(=O)O) [N-palmitoyl tetrapeptide Leu-Ser-Pro-Gly, free C-terminus; LSXX tetrapeptide of the invention] | – | – | – | – | +120% | +362% | overall enhancement of protein synthesis | +105% | +50% | +107% | +46% | – | +82% | +25% | +39% | +111%
5 | Pal-QTAV-OH [reference compound] | – | – | – | – | +32% | ns | no or limited protein expression | +30% | ns | +18% | +18% | – | – | – | – | –
6 | Pal-EKGD-OH [reference compound] | – | – | – | – | +29% | ns | no or limited protein expression | ns | ns | ns | ns | – | – | – | – | –

Reference: patent US20230416304A1, “TETRAPEPTIDE AND COMPOSITIONS COMPRISING TETRAPEPTIDES” (THE BOOTS COMPANY PLC, priority 2020, published 2023)
